Data on one compound can be found in US8722910B2, “Diyne compositions” (Evolva AG, priority 2009, dated 2014).

The test system of assay [1] is C. albicans. Kind of assay: Susceptibility of clinical isolates (MIC, broth dilution). Particulars: Candida albicans; C. albicans (n = 20); M27-A3, 24 hrs; read at 50% inhibition (potassium salt, Voriconazole), 100% (Amphotericin), MEC (Caspofungin); read-out: MIC90. The class given is cell-based. The protocol:
(§1) The efficacy of compound IV″ was investigated on 563 clinical isolates of 33 human fungal pathogens. […] For species with n≧10, the MIC90 (MIC, minimal inhibitory concentration) is given as ng/ml. For species with n≦10, the MIC range is given as ng/ml. 24 h and 48 h reads are indicated (Table 1).
(§2) The in vitro efficacy of antifungal compounds is determined in susceptibility assays, which are indicative for the spectrum and potency of a compound. Susceptibilities are reported as minimal inhibitory concentrations (MIC, as ng/ml or μg/ml) required to inhibit growth to a defined degree compared to the drug free control. The MIC90 defines the MIC required to inhibit growth for ≧90% of the strains of a population tested.
(§3) The MIC90 was calculated for the indicated species.
(In broth dilution the organism is exposed to a series of concentrations in liquid medium.)

A further assay deals with C. dubliniensis. The description is as above. The note with it: Candida dubliniensis; C. dubliniensis (n = 25); M27-A3, 24 hrs; read at 50% inhibition (potassium salt, Voriconazole), 100% (Amphotericin), MEC (Caspofungin); read-out: MIC90. The class given is cell-based. The protocol: as §1, §2, §3
For the next assay, the system named is C. glabrata. Described as above. The class given is cell-based. The note with it: Nakaseomyces glabratus; C. glabrata (n = 25); M27-A3, 24 hrs; read at 50% inhibition (potassium salt, Voriconazole), 100% (Amphotericin), MEC (Caspofungin); read-out: MIC90. The protocol: as §1, §2, §3
The subject of the next assay is C. krusei. Described as above. The class given is cell-based. The note with it: Pichia kudriavzevii; C. krusei (n = 27); M27-A3, 24 hrs; read at 50% inhibition (potassium salt, Voriconazole), 100% (Amphotericin), MEC (Caspofungin); read-out: MIC90. The protocol:
as §1, §2, §3

The test system of a further assay is C. lusitaniae. The assay is described as above. The class given is cell-based. The note with it: Clavispora lusitaniae; C. lusitaniae (n = 24); M27-A3, 24 hrs; read at 50% inhibition (potassium salt, Voriconazole), 100% (Amphotericin), MEC (Caspofungin); read-out: MIC90. The protocol: as §1, §2, §3
The next assay has as its system C. parapsilosis. The assay is described as above. The class given is cell-based. The note with it: Lodderomyces parapsilosis; C. parapsilosis (n = 37); M27-A3, 24 hrs; read at 50% inhibition (potassium salt, Voriconazole), 100% (Amphotericin), MEC (Caspofungin); read-out: MIC90. The protocol:
as §1, §2, §3

The subject of another assay is C. tropicalis. The assay is described as above. The class given is cell-based. The note with it: Candida tropicalis; C. tropicalis (n = 35); M27-A3, 24 hrs; read at 50% inhibition (potassium salt, Voriconazole), 100% (Amphotericin), MEC (Caspofungin); read-out: MIC90. The protocol: as §1, §2, §3
The subject of assay [2] is C. albicans, Fluconazole, Voriconazole, Itraconazole and/or Caspofungin resistant isolates. The assay is described as follows: Susceptibility of resistant clinical isolates (MIC, broth dilution). The class given is cell-based. The note with it: Candida albicans; C. albicans resistant (n = 20): isolates resistant to Fluconazole, Itraconazole and Caspofungin; read-out: MIC90.

Assay [3] has as its system C. glabrata, Fluconazole, Voriconazole, Itraconazole and/or Caspofungin resistant isolates. The assay is described as above. The class given is cell-based. Particulars: Nakaseomyces glabratus; C. glabrata resistant (n = 21): isolates resistant to Fluconazole, Itraconazole, Voriconazole and Caspofungin; read-out: MIC90. The protocol: as §1, §3
A further assay concerns A. flavus. Kind of assay: Susceptibility of clinical Aspergillus isolates (MIC). The note with it: Aspergillus flavus; A. flavus (n = 2); CLSI M38-A2; 50% growth inhibition; 24 h; read-out: MIC50. The class given is cell-based. The protocol: as §1
(§4) Susceptibilities were determined according to the CLSI reference method M38-A2.

In the next assay the test system is A. fumigatus. The assay is described as above. The class given is cell-based. The note with it: Aspergillus fumigatus; A. fumigatus (n = 20); CLSI M38-A2; 50% growth inhibition; 24 h; read-out: MIC50. The protocol: as §1, §4
For the next assay, the system named is A. nidulans. The assay is described as above. The note with it: A. nidulans (n = 3), CLSI M38-A2, 50% growth inhibition, 24 h, read-out: MIC50. The class given is cell-based. The protocol: as §1, §4
In a further assay the test system is A. niger. Described as above. The class given is cell-based. Particulars: A. niger (n = 6), CLSI M38-A2, 50% growth inhibition, 24 h, read-out: MIC50. The protocol:
as §1, §4

Another assay relates to A. terreus. The assay is described as above. The note with it: Aspergillus terreus; A. terreus (n = 5); CLSI M38-A2; 50% growth inhibition; 24 h; read-out: MIC50. The class given is cell-based. The protocol:
as §1, §4

Another assay deals with A. versicolor. The description is as above. The class given is cell-based. Particulars: Aspergillus versicolor; A. versicolor (n = 3); CLSI M38-A2; 50% growth inhibition; 24 h; read-out: MIC50. The protocol:
as §1, §4

For a further assay, the system named is Coccidioides spp. Kind of assay: microbe, parasite or virus in culture. Particulars: Coccidioides, 48 h. The class given is cell-based.
A further assay deals with B. dermatitidis. The assay is described as follows: Susceptibility of clinical dimorphic fungi (MIC). The note with it: Blastomyces dermatitidis; B. dermatitidis (n = 30); CLSI M38-A2; 50% growth reduction; MIC read at 96 h. The class given is cell-based.
For a further assay, the system named is H. capsulatum. Kind of assay: microbe, parasite or virus in culture. The class given is cell-based. Particulars: Histoplasma capsulatum, 120 h.
For a further assay, the system named is Candida albicans. The assay is described as follows: In vitro fungicidal activity vs. Candida albicans. The note with it: Candida albicans.
Assay [4] relates to C. albicans. Kind of assay: Fatty acid competition (antagonism) in 96-well plates. Particulars: 48 h.

≈ marks a conversion by molar mass, not a printed value. Where two headings read alike, the source gives them in different places.

As for `C[C@@H]1[C@H](O)[C@@H](C)/C=C/C=C/C=C/C=C/C=C/C=C/C=C/[C@H](O[C@@H]2O[C@H](C)[C@@H](O)[C@H](N)[C@@H]2O)C[C@@H]2O[C@](O)(C[C@@H](O)C[C@@H](O)[C@H](O)CC[C@@H](O)C[C@@H](O)CC(=O)O[C@H]1C)C[C@H](O)[C@H]2C(=O)O` [Amphotericin B], the MIC90 in the assay on C. albicans [1] is 0.5 µg/mL; in the assay on C. dubliniensis it was 1 µg/mL; in the assay with C. glabrata, 2 µg/mL; in the assay with C. krusei it was 4 µg/mL; in the assay on C. lusitaniae, 1 µg/mL; with C. parapsilosis, 0.5 µg/mL. Moreover, the MIC90 with C. tropicalis came out at 1 µg/mL; in [2] it was 0.5 µg/mL (≈ 0.541 µM); in [3], 2 µg/mL (≈ 2.16 µM); against Coccidioides spp. it was 0.5 µg/mL (≈ 0.541 µM); against B. dermatitidis, 0.25 µg/mL (≈ 0.271 µM); against H. capsulatum, 0.125 µg/mL (≈ 0.135 µM). In addition, the MIC90 came out at 0.2 µg/mL (≈ 0.216 µM) in the assay with Candida albicans (24 h, read-out: MIC90 24 h) and 0.8 µg/mL (≈ 0.866 µM) in the assay with Candida albicans (48 h, read-out: MIC90 48 h). In addition, the MIC50 (commonly an inhibitory concentration at the 50% level, which refers to growth in some studies and to a panel of isolates in others) in the assay with A. flavus stood at 2 µg/mL (≈ 2.16 µM); with A. fumigatus it was 0.5 µg/mL (≈ 0.541 µM); in the assay on A. nidulans it was 2 µg/mL (≈ 2.16 µM); in the assay with A. niger it was 1 µg/mL (≈ 1.08 µM); with A. terreus it was 2 µg/mL (≈ 2.16 µM); in the assay with A. versicolor, 2 µg/mL (≈ 2.16 µM). Further, the “Fungicidal Concentration” value in the assay with Candida albicans amounted to 800 ng/mL. Moreover, the “effect of oleic acid / stearic acid on susceptibility” value with C. albicans [4] is “oleic acid did not decrease the susceptibility”.
